Test results: US20140140962A1, “VIRUSES MODIFIED WITH UNNATURAL MOIETIES AND METHODS OF USE THEREOF” (priority 2011, published 2014)

Experiments:
[1] = test system: HEK 293 cells; experiment: Plaque forming assay (infectivity); type: cell-based; settings: inferred from plaque assays, even at high concentration
Procedure: Dulbecco's modified Eagle's medium (DMEM), RPMI 1640, penicillin/streptomycin and 0.5% trypsin-EDTA were purchased from GIBCO (Grand Island, N.Y.). RPMI 1640 minus folic acid was obtained from Sigma. Fetal calf serum (FCS) and bovine calf serum (BCS) was purchased from HyClone (Logan, Utah). 293 cells were maintained in DMEM supplemented with 10% BCS, 2 mM glutamine, 100 U/mL penicillin, 100 μg/mL streptomycin. 4T1 cells (ATCC) were maintained in RPMI 1640 medium containing 10% FCS, 2 mM L-glutamine, 100 U/mL penicillin, and 100 μg/mL streptomycin. For 4T1 cells grown without folate, RPMI 1640 minus folic acid was supplemented with 10% FCS, 0.3 mg/mL L-glutamine, 2 mg/mL sodium bicarbonate, 100 U/mL penicillin, 100 μg/mL streptomycin. All cells were maintained in 100×20 mm tissue culture dishes obtained from BD biosciences (Franklin Lakes, N.J.) at 37° C. and 5% CO2. HEK 293 cells in […] culture plates were infected with 400 μL of azide labeled virus particles at concentrations of 10^3 particles/mL. The plates were overlaid with complete media containing 2.8% bactoagar and 10% BCS. […] The plaques were counted within a day after the final overlay.
HEK 293 cells cultivated in 6 mL culture plates were infected with 400 μL of azide labeled virus particles at concentrations of 10^3 particles/ml. […] The plaques were counted within a day after the final overlay.

[2] = test system: cancer stem cell related genes (Oct4, Sox2, Nanog, and c-Myc); settings: 3 unrelated invasive colon cancer cell lines; cited from earlier work
[3] = test system: drug resistant cancer cell lines; settings: cited from earlier work

SMILES | toxicity to the cells [1] | inhibition of cancer stem cell related genes [2] | cytotoxicity against drug resistant cancer cell lines [3]
[N-]=[N+]=NCC[C@H](N)C(=O)O [Aha, Azidohomoalanine] | not toxic to the cells | – | –
CC(=O)O[C@@]12CO[C@@H]1C[C@H](O)[C@@]1(C)C(=O)[C@H](OC(=O)C3CC3)C3=C(C)[C@@H](OC(=O)[C@H](O)[C@H](C=C(C)C)NC(=O)OC(C)(C)C)C[C@@](O)([C@@H](OC(=O)c4ccccc4)[C@H]21)C3(C)C [SB-T-1214] | – | substantial inhibition | significantly improved cytotoxicity
